{"source": "patent US9546354B2", "about": "“Z cells activated by zinc finger-like protein and uses thereof in cancer treatment” (National Cheng Kung University, priority 2014, dated 2017)", "key": {"Z cell function": {"test_system": "Z cell function", "assay": "screen of more than 300 compounds for boosting Z cell function", "conditions": "alone or in combination with a Zfra peptide", "excerpt": "In this example, more than 300 hundred compounds were screened for their activities in boosting Z cell function either alone or in combination with a Zfra peptide. From this collection of compounds, CI-4AS-1 (androgen receptor agonist) and (±)-Blebbistatin (inhibitor for non-muscle myosin II ATPase) were identified."}, "DsRed-Hyal-2": {"test_system": "DsRed-Hyal-2", "assay": "Förster resonance energy transfer (FRET) analysis", "format": "binding", "conditions": "versus EGFP and DsRed controls, n=10, p<0.005"}, "breast MDA-MB-231 cells": {"test_system": "breast MDA-MB-231 cells", "assay": "breast MDA-MB-231 xenograft growth in pre-injected nude mice", "format": "in vivo", "conditions": "pre-injected once per week for 4 weeks", "experimental": "(§1) FIG. 3 is a diagram showing identification of Z spleen cells. (A) Nude mice were pre-injected with sterile MilliQ water or a mixture of Zfra1-31 (2 mM in 100 μl sterile water) in 4 consecutive weeks, followed by inoculating malignant breast MDA-MB-231 cells on both flanks 7 and 50 days later. Tumor sizes on both flanks (blue and red) were measured daily. […] These mice were sacrificed, and TMR-Zfra-positive spleen cells were isolated by cell sorting. TMR-Zfra-positive Z spleen cells were around 25% in Zfra-treated mice. […] In B16F10 melanoma-growing BALB/c mice, spleen Z cells dropped down to 3.3% or even lower. In untreated control mice, Z cells are around 25-29%."}, "spleen Z cells": {"test_system": "spleen Z cells", "assay": "level of TMR-Zfra-positive spleen Z cells by cell sorting", "format": "in vivo", "conditions": "Zfra-treated BALB/c mice inoculated with B16F10 melanoma", "experimental": "as §1\nNext, the levels of spleen Z cells in mice pre-treated with full-length Zfra1-31 or control and inoculated with B16F10 melanoma cells were examined. B16F10-growing BALB/c mice had low levels of Z cells, which were 3.3% or lower (FIG. 3C). In contrast, Zfra-treated mice had 26.1% Z cells (FIG. 3C). […] These cells are Hyal-2 positive. The observations indicate that Z cells (e.g., Hyal-2 positive spleen cells) are depleted in mice having cancer growths, and that treatment with Zfra increases the number of Z cells in mice having cancer growths.\nSpleen cells from the mice were isolated and stained with synthesized peptide TMR-Zfra1-31 (Tetramethylrhodamine-Zfra, excitation 550 nm, emission 573 nm) for 30 minutes on ice."}, "melanoma B16F10 cells [1]": {"test_system": "melanoma B16F10 cells", "assay": "melanoma B16F10 lung metastasis after tail-vein inoculation in pre-injected BALB/c mice", "format": "in vivo", "experimental": "(§2) FIG. 1 includes photos showing that Zfra suppresses melanoma B16F10 metastasis to the lung and cancer stemness. BALB/c mice were pre-injected with sterile MilliQ water or Zfra4-10 (1 mM in 100 μl sterile water) in 3 consecutive weeks. Post-treatment for a week, these mice were inoculated with melanoma B16F10 cells via tail veins (2×10^5 cells in 100 μl PBS). Control mice died 50 days later, and Zfra-treated mice were alive and sacrificed for examination. A: Shown on the lung surface are the metastatic tumor foci as dark areas in control mice. […] No metastases were found in other organs in both mice. C: Zfra suppressed Ser14 phosphorylation of […] (or Wwox) in the lung of Zfra treated mice (˜65% suppression).\nBALB/c mice were pre-injected with sterile MilliQ water or Zfra4-10 (1 mM in 100 μl sterile water) once per week in three consecutive weeks. Following one week post-treatment, the mice were inoculated with melanoma B16F10 cells via tail veins (2×10^5 cells in 100 μl PBS).\n(§3) Importantly, cancer cell stemness, as determined by the expression of pluripotent stem cell markers Oct-4 and SSEA-4, was blocked in the lungs of Zfra4-10 treated mice (FIG. 1D). Thus, when WWOX phosphorylation at Ser14 is blocked by Zfra, cancer cell metastasis and stemness is prevented."}, "WWOX": {"test_system": "WWOX", "assay": "Ser14 phosphorylation of WWOX and Wwox protein level in the lung of treated mice", "format": "in vivo, BALB/c mice", "experimental": "as §2, §3"}, "melanoma B16F10 cells [2]": {"test_system": "melanoma B16F10 cells", "assay": "melanoma B16F10 growth in pre-injected BALB/c mice", "format": "in vivo", "conditions": "pre-injection before inoculation, immune competent BALB/c mice", "experimental": "as §1\nFIG. 4A is a diagram showing in vivo animal models design to test the anticancer efficacy of chemical drugs and “Z cells” activation. Immune competent BALB/c mice or immune deficient NOD-SCID mice were pre-injected with CI-4AS-1 or (±)-Blebbistatin with or without zinc finger-like Zfra4-10 peptide once per week for 3 consecutive weeks, and then inoculated with 2.5×10^6 or 1.5×10^6 malignant melanoma B16F10 cells at both right and left flanks. After 60 days, spleen cells transferred were performed from BALB/c to NOD-SCID mice via tail veins injection. Thirty days later, the recipient mice were inoculated with 1.5×10^6 malignant melanoma B16F10 cells at both right and left flanks. […]"}, "Z cells": {"test_system": "Z cells", "assay": "Z cell activation by Zfra peptide", "format": "cell-based, BALB/c mice", "conditions": "in vivo and in vitro", "experimental": "Briefly, spleen cells were isolated from BALB/c mice and then cultured overnight. These cells were stimulated with Zfra4-10 peptide (10 μM) for 16-24 hr, and then stained with TMR-Zfra, followed by isolating the cells using a cell sorter. Z+ and Z− cell populations were counted and injected via tail veins of BALB/c. […] FIG. 5."}, "[3]": {"biological_target": "T1, membrane hyaluronidase Hyal-2 (Mus musculus, UniProt O35632)", "T1 construct": "spleen cells were isolated from immune deficient NOD-SCID mice; from tissue; host or cells: spleen cells of NOD-SCID mice", "T1 sequence (O35632 21-448)": "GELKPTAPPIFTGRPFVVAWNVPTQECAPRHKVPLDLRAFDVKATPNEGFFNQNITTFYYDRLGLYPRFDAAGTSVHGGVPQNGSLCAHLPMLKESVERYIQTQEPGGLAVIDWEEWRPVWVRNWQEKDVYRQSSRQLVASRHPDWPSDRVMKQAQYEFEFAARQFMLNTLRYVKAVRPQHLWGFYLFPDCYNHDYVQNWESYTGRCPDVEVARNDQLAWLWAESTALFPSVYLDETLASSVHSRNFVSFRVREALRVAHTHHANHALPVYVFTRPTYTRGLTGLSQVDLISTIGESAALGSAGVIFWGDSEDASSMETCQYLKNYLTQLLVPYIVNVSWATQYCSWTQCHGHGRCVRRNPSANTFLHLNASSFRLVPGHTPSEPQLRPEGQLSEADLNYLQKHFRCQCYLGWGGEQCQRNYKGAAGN", "assay": "staining of spleen cells with TMR-Zfra and Hyal-2 antibody, epifluorescence and confocal microscopy", "format": "binding, NOD-SCID mice", "conditions": "30 minutes on ice", "experimental": "FIG. 2 includes photos showing the identification of Zfra^+ Hyal-2^+ spleen cells. A and B: Spleen cells of NOD-SCID mice were isolated and stained with synthesized peptide TMR-Zfra1-31 and Hyal-2 (green fluorescence) antibody for 30 minutes on ice, and then fixed with 4% formaldehyde.\nIn this example, spleen cells were isolated from immune deficient NOD-SCID mice, which are deficient in T and B lymphocytes and NK cells. The isolated spleen cells were stained with antibody against Hyal-2 (green) and TMR-Zfra (Zfra1-31 labeled with red fluorescent tetramethylrodamine) for 30 minutes on ice, and then fixed with 4% formaldehyde (FIG. 2). […] These Hyal-2^+ Zfra^+ positive cells are interchangeably referred to as “Z cells,” for cells interacting with Zfra."}}, "note": "Entries after “also recorded” stand apart in the source; their conditions may differ. No end group written: not given here. TMR = tetramethylrhodamine label", "data": [{"molecule": "Cc1ccc2c(c1)C(=O)C1(O)CCN(c3ccccc3)C1=N2", "note": "(racemic) [(±)-Blebbistatin]", "values": [{"measurement": "outcome of screen for boosting Z cell function", "setting": "Z cell function", "value": "identified"}]}, {"molecule": "CI-4AS-1", "values": [{"measurement": "outcome of screen for boosting Z cell function", "setting": "Z cell function", "value": "identified"}]}, {"molecule": "EGFP-Zfra: EGFP-tagged Zfra used in FRET analysis with DsRed-Hyal-2 (MSSRRSSSCKYCEQDFRAHTQKNAATPFLAN; cysteine pairing not given here; also: EGFP tag fused, end not given here) [reference compound]", "values": [{"measurement": "binding to Hyal-2 by FRET", "setting": "DsRed-Hyal-2", "value": "significant binding"}]}, {"molecule": "NH-MSSRRSSSCKYCEQDFRAHTQKNAATPFLAN-COOH (H-MSSRRSSSCKYCEQDFRAHTQKNAATPFLAN-OH; cysteine pairing not given here) [Zfra1-31]", "values": [{"measurement": "growth of breast MDA-MB-231 xenografts", "setting": "breast MDA-MB-231 cells", "value": "resisted the growth"}, {"measurement": "TMR-Zfra-positive Z spleen cells", "setting": "spleen Z cells", "value": 26.1, "unit": "%"}]}, {"molecule": "RRSSSCK [Zfra4-10]", "values": [{"measurement": "cancer cell stemness (pluripotent markers Oct-4 and SSEA-4) in the lung", "setting": "melanoma B16F10 cells [1]; B16F10 cells in the lung, FIG. 1D", "value": "suppressed the stemness; also recorded: blocked"}, {"measurement": "melanoma B16F10 metastasis to the lung", "setting": "melanoma B16F10 cells [1]; Zfra4-10 1 mM in 100 μl once per week for 3 weeks before 2×10^5 B16F10 cells via tail veins", "value": "Metastasis was not found; also recorded: suppressed melanoma B16F10 metastasis to the lung"}, {"measurement": "survival of mice", "setting": "melanoma B16F10 cells [1]; when control mice died 50 days after inoculation of B16F10 cells", "value": "remained alive"}, {"measurement": "Wwox protein levels", "setting": "WWOX; lung of Zfra treated mice", "value": "not suppressed"}, {"measurement": "suppression of Ser14 phosphorylation of WWgre (or Wwox) in the lung", "setting": "WWOX; lung of Zfra treated mice, FIG. 1C", "value": "~65", "unit": "%"}, {"measurement": "Ser14 phosphorylation of WWOX (in words)", "setting": "WWOX; lung of treated mice, FIG. 1C", "value": "inhibition of Ser14 phosphorylation of WWOX"}, {"measurement": "growth of melanoma B16F10 in BALB/c mice", "setting": "melanoma B16F10 cells [2]", "value": "prevented melanoma B16F10 growth"}, {"measurement": "Z cell activation", "setting": "Z cells", "value": "sufficient to induce Z cell activation both in vivo and in vitro"}]}, {"molecule": "TMR-Zfra1-31: Zfra1-31 labeled with red fluorescent tetramethylrodamine ({TMR}-MSSRRSSSCKYCEQDFRAHTQKNAATPFLAN; cysteine pairing not given here)", "values": [{"measurement": "binding to or colocalization with membrane Hyal-2 on spleen cells", "setting": "[3]", "value": "bound to membrane hyaluronidase Hyal-2"}, {"measurement": "binding to or colocalization with membrane Hyal-2 on spleen cells", "setting": "[3]; listed as TMR-Zfra", "value": "colocalization of both proteins on the cell surface"}]}, {"molecule": "Zfra: Zfra peptide, form not stated at the place (Zfra1-31 or Zfra4-10) (MSSRRSSSCKYCEQDFRAHTQKNAATPFLAN)", "values": [{"measurement": "binding to Hyal-2 by FRET", "setting": "DsRed-Hyal-2", "value": "binding of Zfra to membrane Hyal-2"}, {"measurement": "growth of melanoma B16F10 in BALB/c mice", "setting": "melanoma B16F10 cells [2]", "value": "completely blocked"}, {"measurement": "TMR-Zfra-positive Z spleen cells", "setting": "spleen Z cells", "value": "around 25%"}]}]}
